Test results reported in ChEMBL document CHEMBL4665770, “Design and Discovery of Natural Cyclopeptide Skeleton Based Programmed Death Ligand 1 Inhibitor as Immune Modulator for Cancer Therapy” (J Med Chem, 2020).
pIC50, pKd: −log10 of the molar value. The source made the active and inactive calls. The rule behind the calls is not given here.

What was measured:
[1] = Induction of immune response mediated antitumor activity in mouse B16F10 cells xenografted in C57/BL mouse assessed as reduction in tumor weight at 40 mg/kg, ip administered every other day from day 6 post implantation measured every 2 days relative to control; assay type: functional, B16-F10; design: scale not given: the % may be the effect or the level left
B16-F10 [2] = assay: Induction of immune response mediated antitumor activity in mouse B16F10 cells xenografted in C57/BL mouse assessed as change in ratio of CD3+/CD45+ cells at 40 mg/kg, ip administered every other day from day 6 post implantation by flow cytometry; assay type: functional, organism-based
[3] = Induction of immune response mediated antitumor activity in mouse B16F10 cells xenografted in C57/BL mouse assessed as infiltration of CD8 cells at 40 mg/kg, ip administered every other day from day 6 post implantation by flow cytometry (reference value: 26.9 %); assay type: functional, B16-F10
MC-38 [4] = assay: Immunomodulatory activity in mouse MC38 cells xenografted in C57/BL mouse assessed as increase in infiltration of CD8-positive T cells at 40 mg/kg, ip administered every other day from day 6 post implantation by DAPI staining based immunofluorescence microscopy; assay type: functional, organism-based
MDA-MB-231 [5] = assay: Induction of apoptosis in human MDA-MB-231 cells assessed as activated caspase-3 at 20 uM incubated for 24 hrs by GrennNuc caspase-3 substrate based assay; assay type: cell-based; details: mda-mb-231, 24 h
[6] = Toxicity in mouse MC38 cells xenografted C57/BL mouse assessed as change in body weight at 40 mg/kg, ip administered every other day from day 6 post implantation measured every 2 days; assay type: organism-based; details: in vivo, 48 h
MC-38 [7] = assay: Immunomodulatory activity in mouse MC38 cells xenografted in C57/BL mouse assessed as increase in perforin at 40 mg/kg, ip administered every other day from day 6 post implantation by hematoxylin staining based immunohistochemical analysis; assay type: functional, organism-based
[8] = Induction of apoptosis in human PBMC cells assessed as activated caspase-3 at 20 uM incubated for 24 hrs by GrennNuc caspase-3 substrate based assay; assay type: cell-based
MC-38 [9] = assay: Immunomodulatory activity in mouse MC38 cells xenografted in C57/BL mouse assessed as increase in granzyme B at 40 mg/kg, ip administered every other day from day 6 post implantation by hematoxylin staining based immunohistochemical analysis; assay type: functional, organism-based
[10] = biological target: T1, Programmed cell death protein 1/Programmed cell death 1 ligand 1 (Homo sapiens, UniProt Q9NZQ7); assay: Inhibition of PD1-Tag2/PD-L1-Tag1 (unknown origin) protein-protein interaction preincubated for 15 mins followed by addition of anti-Tag1-Eu3+ and anti-Tag2-XL665 measured after 3 hrs by HTRF assay; assay type: protein-complex assay
T1 sequence (Q15116 whole entry): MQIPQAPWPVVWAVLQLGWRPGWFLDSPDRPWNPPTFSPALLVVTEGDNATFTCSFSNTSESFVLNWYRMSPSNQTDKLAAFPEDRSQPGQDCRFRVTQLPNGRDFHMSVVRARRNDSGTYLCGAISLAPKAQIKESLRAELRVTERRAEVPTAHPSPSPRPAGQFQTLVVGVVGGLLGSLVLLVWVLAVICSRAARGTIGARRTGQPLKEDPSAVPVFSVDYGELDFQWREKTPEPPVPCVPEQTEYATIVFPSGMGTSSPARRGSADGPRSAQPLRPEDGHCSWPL
T1 sequence (Q9NZQ7 whole entry): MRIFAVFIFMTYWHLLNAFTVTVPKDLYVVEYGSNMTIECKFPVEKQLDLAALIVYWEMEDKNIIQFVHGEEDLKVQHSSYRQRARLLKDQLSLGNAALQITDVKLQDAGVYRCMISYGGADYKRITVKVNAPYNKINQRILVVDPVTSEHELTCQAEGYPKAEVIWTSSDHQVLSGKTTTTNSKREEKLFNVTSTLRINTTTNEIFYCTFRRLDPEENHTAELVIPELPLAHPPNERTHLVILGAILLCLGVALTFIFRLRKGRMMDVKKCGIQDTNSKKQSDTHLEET

MDA-MB-231 [11] = assay: Immunomodulatory activity in human MDA-MB-231 cells expressing luciferase assessed as induction of PBMC-induced cell death incubated for 72 hrs by tecan-plate reader based luciferase assay; assay type: functional; details: dose microM 0.313-80, time 72.0 hrs
B16-F10 [12] = assay: Induction of immune response mediated antitumor activity in mouse B16F10 cells xenografted in C57/BL mouse coadministered with anti-CD8 antibody assessed as suppression of tumor growth at 40 mg/kg, ip administered every other day from day 6 post implantation measured every 2 days; assay type: functional, organism-based
MDA-MB-231 [13] = assay: Immunomodulatory activity in human CFDA SE-labelled MDA-MB-231 cells cocultured with PMBC assessed as induction of PBMC recruitment to MDA-MB-231 cells by measuring necrotic cell at 20 uM incubated for 48 hrs by propidium iodide staining based flow cytometry analysis (reference value: 0.13 %); assay type: functional
[14] = Induction of immune response mediated antitumor activity in mouse B16F10 cells xenografted in C57/BL mouse assessed as reduction in tumor volume at 40 mg/kg, ip administered every other day from day 6 post implantation measured every 2 days relative to control; assay type: functional, B16-F10; design: scale not given: the % may be the effect or the level left
MDA-MB-231 [15] = assay: Cytotoxicity against human MDA-MB-231 cells assessed as reduction in cell viability at 0.312 to 80 uM incubated for 72 hrs by MTT assay; assay type: cell-based; details: mda-mb-231, 72 h, dose 0.312-80 µM
[16] = biological target: Programmed cell death protein 1/Programmed cell death 1 ligand 1 (Homo sapiens) (UniProt Q15116+Q9NZQ7); assay: Inhibition of PD1-Tag2/PD-L1-Tag1 (unknown origin) protein-protein interaction at 20 uM preincubated for 15 mins followed by addition of anti-Tag1-Eu3+ and anti-Tag2-XL665 measured after 3 hrs by HTRF assay relative to control; assay type: protein-complex assay; details: time 195.0 min
[17] = biological target: T1, Programmed cell death protein 1/Programmed cell death 1 ligand 1; assay: Inhibition of FC-tagged PD1/His-tagged PD-L1 (unknown origin) protein-proteiinteraction incubated for 3 hrs by coimmunoprecipitation-based Western blot assay; assay type: protein-complex assay
B16-F10 [18] = assay: Induction of immune response mediated antitumor activity in mouse B16F10 cells xenografted in C57/BL mouse assessed as change in ratio of CD8+/CD3+ cells at 40 mg/kg, ip administered every other day from day 6 post implantation by flow cytometry; assay type: functional, organism-based
[19] = Induction of immune response mediated antitumor activity in mouse B16F10 cells xenografted in C57/BL mouse assessed as infiltration of CD45 cells at 40 mg/kg, ip administered every other day from day 6 post implantation by flow cytometry (reference value: 1.81 %); assay type: functional, B16-F10
MDA-MB-231 [20] = assay: Immunomodulatory activity in human MDA-MB-231 cocultured with PMBC assessed as induction of PBMC recruitment to MDA-MB-231 cells by measuring increase in cell cluster at 20 uM incubated for 12 to 48 hrs by EVOS FL digital microscopic analysis; assay type: functional, cell-based; details: time hrs 12-48
MDA-MB-231 [21] = assay: Immunomodulatory activity in human CFDA SE-labelled MDA-MB-231 cells cocultured with PMBC assessed as induction of PBMC recruitment to MDA-MB-231 cells by measuring early apoptotic cells at 20 uM incubated for 48 hrs by propidium iodide staining based flow cytometry analysis (reference value: 0 %); assay type: functional
MC-38 [22] = assay: Immunomodulatory activity in mouse MC38 cells xenografted in C57/BL mouse assessed as increase in infiltration of CD3-positive T cells at 40 mg/kg, ip administered every other day from day 6 post implantation by DAPI staining based immunofluorescence microscopy; assay type: functional, organism-based
MDA-MB-231 [23] = assay: Immunomodulatory activity in human CFDA SE-labelled MDA-MB-231 cells cocultured with PMBC assessed as induction of PBMC recruitment to MDA-MB-231 cells by measuring viable cells at 20 uM incubated for 48 hrs by propidium iodide staining based flow cytometry analysis (reference value: 99.87 %); assay type: functional
[24] = biological target: Programmed cell death protein 1 (Homo sapiens, UniProt Q15116); assay: Binding affinity to PD1 (unknown origin) by SPR analysis
Sequence of Programmed cell death protein 1 (Q15116 whole entry): as the sequence (Q15116 whole entry) above

MC-38 [25] = assay: Induction of immune response mediated antitumor activity in mouse MC38 cells xenografted in C57/BL mouse assessed as tumor growth inhibition at 40 mg/kg, ip administered every other day from day 6 post implantation measured every 2 days; assay type: functional, organism-based
MDA-MB-231 [26] = assay: Immunomodulatory activity in human CFDA SE-labelled MDA-MB-231 cells cocultured with PMBC assessed as induction of PBMC recruitment to MDA-MB-231 cells by measuring late apoptotic cells at 20 uM incubated for 48 hrs by propidium iodide staining based flow cytometry analysis (reference value: 0 %); assay type: functional
MDA-MB-231 [27] = assay: Cytotoxicity against human MDA-MB-231 cells expressing luciferase assessed as reduction in cell viability at 0.312 to 80 uM incubated for 72 hrs by tecan-plate reader based luciferase assay; details: mda-mb-231, 72 h, dose 0.312-80 µM
[28] = Induction of immune response mediated antitumor activity in mouse B16F10 cells xenografted in C57/BL mouse assessed as infiltration of CD3 cells at 40 mg/kg, ip administered every other day from day 6 post implantation by flow cytometry (reference value: 1.45 %); assay type: functional, B16-F10
MDA-MB-231 [29] = assay: Immunomodulatory activity in human MDA-MB-231 cells cocultured with human PBMC assessed as induction of PBMC recruitment to MDA-MB-231 cells by measuring increase in activated caspase-3 at 20 uM incubated for 24 hrs by GrennNuc caspase-3 substrate based assay; assay type: functional, cell-based
B16-F10 [30] = assay: Toxicity in mouse B16F10 cells xenografted C57/BL mouse assessed as change in body weight at 40 mg/kg, ip administered every other day from day 6 post implantation measured every 2 days; assay type: organism-based; details: in vivo, 48 h
[31] = biological target: Programmed cell death 1 ligand 1 (Homo sapiens, UniProt Q9NZQ7); assay: Binding affinity to PDL1 (unknown origin) by SPR analysis
Sequence of Programmed cell death 1 ligand 1 (Q9NZQ7 whole entry): as the sequence (Q9NZQ7 whole entry) above

MDA-MB-231 [32] = assay: Immunomodulatory activity in human MDA-MB-231 cells expressing luciferase assessed as induction of PBMC-induced cell death incubated for 72 hrs by LDH assay; assay type: functional, cell-based; details: dose microM 0.313-80, time 72.0 hrs
[33] = Toxicity in mouse MC38 cells xenografted C57/BL mouse assessed as death at 40 mg/kg, ip administered every other day from day 6 post implantation measured on day 14; assay type: organism-based; details: in vivo, time 14 day, read-out: Activity

With `CC(NCCCC[C@@H]1NC(=O)[C@@H](Cc2ccccc2)NC(=O)[C@H](CC(C)C)NC(=O)[C@H](CC(=O)O)NC(=O)[C@H]([C@@H](C)O)NC(=O)[C@@H]2CCCN2C(=O)[C@@H](Cc2c[nH]c3ccccc23)NC(=O)[C@H](CC(C)C)NC(=O)[C@H](CCCNC(=N)N)NC(=O)[C@H](C(C)C)NC1=O)=C1C(=O)CC(C)(C)CC1=O` the Activity [1] was 64.9%, the Activity (B16-F10 [2]) was “inactive” and the Activity [3] was 36.5%. For the same molecule, the Activity (MC-38 [4]) was “Active”, the Activity (MDA-MB-231 [5]) was “Non-Toxic” and the Activity [6] was “Non-Toxic”. For the same molecule, the Activity (MC-38 [7]) was “Active”, the Activity [8] was “Non-Toxic” and the Activity (MC-38 [9]) was “Active”. For the same molecule, the pIC50 [10] was 5.85, the Activity (MDA-MB-231 [11]) was “Dose-dependent effect” and the Activity (B16-F10 [12]) was “inactive”. The Activity (MDA-MB-231 [13]) was 0%, the Activity [14] was 54.8% and the Activity (MDA-MB-231 [15]) was “Non-Toxic”. The inhibition [16] was 95.8%, the pIC50 [17] was 6.35 and the Activity (B16-F10 [18]) was “inactive”. For the same molecule, the Activity [19] was 13.3%, the Activity (MDA-MB-231 [20]) was “Active” and the Activity (MDA-MB-231 [21]) was 42.33%. For the same molecule, the Activity (MC-38 [22]) was “Active”, the Activity (MDA-MB-231 [23]) was 0.46% and the pKd [24] was 2.78. For the same molecule, the TGI (MC-38 [25]) was “Active”, the Activity (MDA-MB-231 [26]) was 57.03% and the Activity (MDA-MB-231 [27]) was “Non-Toxic”. The Activity [28] was 5.21%, the Activity (MDA-MB-231 [29]) was “Active” and the Activity (B16-F10 [30]) was “Non-Toxic”. For the same molecule, the pKd [31] was 5.25 and the Activity (MDA-MB-231 [32]) was “Dose-dependent effect”.
With `Cc1c(COc2ccc(CN3CCCCC3C(=O)O)cc2Br)cccc1-c1ccccc1` (centres undefined) the Activity (MC-38 [4]) was “Active”, the Activity [6] was “Toxic” and the Activity (MC-38 [7]) was “Active”. For the same molecule, the Activity (MC-38 [9]) was “Active”, the Activity (MDA-MB-231 [13]) was 0% and the Activity (MDA-MB-231 [21]) was 55%. The Activity (MC-38 [22]) was “Active”, the Activity (MDA-MB-231 [23]) was 0.31% and the TGI (MC-38 [25]) was “Active”. For the same molecule, the mortality at 336 h [33] was 75%, the Activity (MDA-MB-231 [26]) was 44.69% and the Activity (MDA-MB-231 [29]) was “Active”.
